Test: molar heat capacity at constant pressure
Conditions: 101.33 kPa, Liquid

CCCC[n+]1ccccc1.O=S(=O)([N-]S(=O)(=O)C(F)(F)F)C(F)(F)F [1-butylpyridinium bis[(trifluoromethyl)sulfonyl]imide]
Conditions	molar heat capacity at constant pressure [J/K/mol]
323.18 K, Large sample (1 g) DSC	592
328.15 K, modulated-temperature differential scanning calorimetry MDSC	604
328.18 K, Large sample (1 g) DSC	595
330.15 K, Small sample (50 mg) DSC	587
333.13 K, Large sample (1 g) DSC	596
333.15 K, modulated-temperature differential scanning calorimetry MDSC	607
335.15 K, Small sample (50 mg) DSC	590
338.14 K, Large sample (1 g) DSC	600
338.15 K, modulated-temperature differential scanning calorimetry MDSC	610
340.15 K, Small sample (50 mg) DSC	594
343.15 K, modulated-temperature differential scanning calorimetry MDSC	610
343.16 K, Large sample (1 g) DSC	603
345.15 K, Small sample (50 mg) DSC	596
348.12 K, Large sample (1 g) DSC	603
348.15 K, modulated-temperature differential scanning calorimetry MDSC	616
350.15 K, Small sample (50 mg) DSC	600
353.14 K, Large sample (1 g) DSC	604
353.15 K, modulated-temperature differential scanning calorimetry MDSC	615
355.15 K, Small sample (50 mg) DSC	603
358.15 K, Large sample (1 g) DSC	609
358.15 K, modulated-temperature differential scanning calorimetry MDSC	621
360.15 K, Small sample (50 mg) DSC	605
363.15 K, modulated-temperature differential scanning calorimetry MDSC	624
363.17 K, Large sample (1 g) DSC	614
365.15 K, Small sample (50 mg) DSC	607
368.15 K, modulated-temperature differential scanning calorimetry MDSC	623
368.17 K, Large sample (1 g) DSC	617
370.15 K, Small sample (50 mg) DSC	610
373.15 K, modulated-temperature differential scanning calorimetry MDSC	628
373.16 K, Large sample (1 g) DSC	617
375.15 K, Small sample (50 mg) DSC	613
378.13 K, Large sample (1 g) DSC	618
378.15 K, modulated-temperature differential scanning calorimetry MDSC	628
380.15 K, Small sample (50 mg) DSC	616
383.14 K, Large sample (1 g) DSC	621
383.15 K, modulated-temperature differential scanning calorimetry MDSC	631
385.15 K, Small sample (50 mg) DSC	619
388.14 K, Large sample (1 g) DSC	623
388.15 K, modulated-temperature differential scanning calorimetry MDSC	635
390.15 K, Small sample (50 mg) DSC	622
393.14 K, Large sample (1 g) DSC	626
393.15 K, modulated-temperature differential scanning calorimetry MDSC	636
395.15 K, Small sample (50 mg) DSC	624
398.13 K, Large sample (1 g) DSC	630
398.15 K, modulated-temperature differential scanning calorimetry MDSC	636
400.15 K, Small sample (50 mg) DSC	627
403.15 K, modulated-temperature differential scanning calorimetry MDSC	640
403.17 K, Large sample (1 g) DSC	631
405.15 K, Small sample (50 mg) DSC	630
408.14 K, Large sample (1 g) DSC	632
408.15 K, modulated-temperature differential scanning calorimetry MDSC	642
410.15 K, Small sample (50 mg) DSC	633
413.15 K, modulated-temperature differential scanning calorimetry MDSC	644
413.16 K, Large sample (1 g) DSC	633
415.15 K, Small sample (50 mg) DSC	635
418.13 K, Large sample (1 g) DSC	636
418.15 K, modulated-temperature differential scanning calorimetry MDSC	645
420.15 K, Small sample (50 mg) DSC	639
423.15 K, Large sample (1 g) DSC	635
425.15 K, Small sample (50 mg) DSC	641

CCn1cc[n+](C)c1.O=S(=O)([O-])C(F)(F)F [1-ethyl-3-methylimidazolium trifluoromethanesulfonate]
Conditions	molar heat capacity at constant pressure [J/K/mol]
313.13 K, Large sample (1 g) DSC	384
315.15 K, Small sample (50 mg) DSC	386
318.13 K, Large sample (1 g) DSC	385
320.15 K, Small sample (50 mg) DSC	388
323.12 K, Large sample (1 g) DSC	386
325.15 K, Small sample (50 mg) DSC	390
328.15 K, modulated-temperature differential scanning calorimetry MDSC	392
328.16 K, Large sample (1 g) DSC	384
330.15 K, Small sample (50 mg) DSC	392
333.14 K, Large sample (1 g) DSC	383
333.15 K, modulated-temperature differential scanning calorimetry MDSC	395
335.15 K, Small sample (50 mg) DSC	394
338.15 K, modulated-temperature differential scanning calorimetry MDSC	397
338.17 K, Large sample (1 g) DSC	387
340.15 K, Small sample (50 mg) DSC	395
343.15 K, modulated-temperature differential scanning calorimetry MDSC	398
343.17 K, Large sample (1 g) DSC	391
345.15 K, Small sample (50 mg) DSC	396
348.13 K, Large sample (1 g) DSC	392
348.15 K, modulated-temperature differential scanning calorimetry MDSC	400
350.15 K, Small sample (50 mg) DSC	397
353.15 K, modulated-temperature differential scanning calorimetry MDSC	402
353.16 K, Large sample (1 g) DSC	393
355.15 K, Small sample (50 mg) DSC	399
358.12 K, Large sample (1 g) DSC	395
358.15 K, modulated-temperature differential scanning calorimetry MDSC	404
360.15 K, Small sample (50 mg) DSC	401
363.14 K, Large sample (1 g) DSC	398
363.15 K, modulated-temperature differential scanning calorimetry MDSC	405
365.15 K, Small sample (50 mg) DSC	403
368.14 K, Large sample (1 g) DSC	400
368.15 K, modulated-temperature differential scanning calorimetry MDSC	408
370.15 K, Small sample (50 mg) DSC	405
373.14 K, Large sample (1 g) DSC	401
373.15 K, modulated-temperature differential scanning calorimetry MDSC	409
375.15 K, Small sample (50 mg) DSC	406
378.13 K, Large sample (1 g) DSC	402
378.15 K, modulated-temperature differential scanning calorimetry MDSC	411
380.15 K, Small sample (50 mg) DSC	409
383.15 K, modulated-temperature differential scanning calorimetry MDSC	412
383.17 K, Large sample (1 g) DSC	405
385.15 K, Small sample (50 mg) DSC	410
388.15 K, Large sample (1 g) DSC	407
388.15 K, modulated-temperature differential scanning calorimetry MDSC	414
390.15 K, Small sample (50 mg) DSC	412
393.14 K, Large sample (1 g) DSC	410
393.15 K, modulated-temperature differential scanning calorimetry MDSC	416
395.15 K, Small sample (50 mg) DSC	414
398.15 K, modulated-temperature differential scanning calorimetry MDSC	416
398.17 K, Large sample (1 g) DSC	411
400.15 K, Small sample (50 mg) DSC	416
403.15 K, Large sample (1 g) DSC	414
403.15 K, modulated-temperature differential scanning calorimetry MDSC	418
405.15 K, Small sample (50 mg) DSC	418
408.12 K, Large sample (1 g) DSC	416
408.15 K, modulated-temperature differential scanning calorimetry MDSC	419
410.15 K, Small sample (50 mg) DSC	420
413.15 K, Large sample (1 g) DSC	419
413.15 K, modulated-temperature differential scanning calorimetry MDSC	421
415.15 K, Small sample (50 mg) DSC	422
418.17 K, Large sample (1 g) DSC	421
420.15 K, Small sample (50 mg) DSC	424
423.14 K, Large sample (1 g) DSC	422
425.15 K, Small sample (50 mg) DSC	425

From the NIST ThermoML archive (doi:10.1016/j.fluid.2006.03.015)
